The kinase profiling compilation of Christmann-Franck et al. (2016)

What was measured:
Test in all cases: KINOMEscan competition binding
LATS2 (human) = LATS2 (human) (UniProt Q9NRM7); conditions: compound 1.0 µM
AURKC (human) = AURKC (human) (UniProt Q9UQB9); conditions: compound 1.0 µM
TESK1 (human) = TESK1 (human) (UniProt Q15569); conditions: compound 1.0 µM
ACVR2B (human) = ACVR2B (human) (UniProt Q13705); conditions: compound 1.0 µM
DAPK1 (human) = DAPK1 (human) (UniProt P53355); conditions: compound 1.0 µM
STK25 (human) = STK25 (human) (UniProt O00506); conditions: compound 1.0 µM
MYLK2 (human) = MYLK2 (human) (UniProt Q9H1R3); conditions: compound 1.0 µM
PRPF4B (human) = PRPF4B (human) (UniProt Q13523); conditions: compound 1.0 µM
CHEK1 (human) = CHEK1 (human) (UniProt O14757); conditions: compound 1.0 µM
IRAK4 (human) = IRAK4 (human) (UniProt Q9NWZ3); conditions: compound 1.0 µM
FER (human) = FER (human) (UniProt P16591); conditions: compound 1.0 µM
[1] = tested on: FGFR3 (human), P22607 [G697C]; conditions: compound 1.0 µM
STK32A (human) = STK32A (human) (UniProt Q8WU08); conditions: compound 1.0 µM
Sequence of STK32A (human) (Q8WU08 whole entry, looked up): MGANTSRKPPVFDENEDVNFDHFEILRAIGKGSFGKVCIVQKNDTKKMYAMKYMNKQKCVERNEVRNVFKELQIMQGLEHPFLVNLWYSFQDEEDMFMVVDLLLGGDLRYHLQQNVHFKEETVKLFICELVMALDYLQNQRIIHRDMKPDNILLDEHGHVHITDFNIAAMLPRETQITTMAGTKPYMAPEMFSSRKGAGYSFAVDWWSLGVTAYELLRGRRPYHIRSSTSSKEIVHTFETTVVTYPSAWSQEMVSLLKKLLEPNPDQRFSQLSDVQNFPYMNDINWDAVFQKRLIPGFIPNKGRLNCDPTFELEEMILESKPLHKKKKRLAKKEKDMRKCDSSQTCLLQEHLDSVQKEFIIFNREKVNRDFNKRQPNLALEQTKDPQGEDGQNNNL

MAP2K2 (human) = MAP2K2 (human) (UniProt P36507); conditions: compound 1.0 µM
SBK1 (human) = SBK1 (human) (UniProt Q52WX2); conditions: compound 1.0 µM
FGFR2 (human) = FGFR2 (human) (UniProt P21802); conditions: compound 1.0 µM
TGFBR2 (human) = TGFBR2 (human) (UniProt P37173); conditions: compound 1.0 µM
PRKCQ (human) = PRKCQ (human) (UniProt Q04759); conditions: compound 1.0 µM
CDK8 (human) = CDK8 (human) (UniProt P49336); conditions: compound 1.0 µM
RPS6KA5 KD1 (human) = RPS6KA5 KD1 (human) (UniProt O75582); conditions: compound 1.0 µM
MKNK1 (human) = MKNK1 (human) (UniProt Q9BUB5); conditions: compound 1.0 µM
MAPK12 (human) = MAPK12 (human) (UniProt P53778); conditions: compound 1.0 µM
FLT1 (human) = FLT1 (human) (UniProt P17948); conditions: compound 1.0 µM
[2] = tested on: FLT3 (human), P36888 [D835H]; conditions: compound 1.0 µM
RIPK1 (human) = RIPK1 (human) (UniProt Q13546); conditions: compound 1.0 µM
NEK4 (human) = NEK4 (human) (UniProt P51957); conditions: compound 1.0 µM
Sequence of NEK4 (human) (P51957 whole entry, looked up): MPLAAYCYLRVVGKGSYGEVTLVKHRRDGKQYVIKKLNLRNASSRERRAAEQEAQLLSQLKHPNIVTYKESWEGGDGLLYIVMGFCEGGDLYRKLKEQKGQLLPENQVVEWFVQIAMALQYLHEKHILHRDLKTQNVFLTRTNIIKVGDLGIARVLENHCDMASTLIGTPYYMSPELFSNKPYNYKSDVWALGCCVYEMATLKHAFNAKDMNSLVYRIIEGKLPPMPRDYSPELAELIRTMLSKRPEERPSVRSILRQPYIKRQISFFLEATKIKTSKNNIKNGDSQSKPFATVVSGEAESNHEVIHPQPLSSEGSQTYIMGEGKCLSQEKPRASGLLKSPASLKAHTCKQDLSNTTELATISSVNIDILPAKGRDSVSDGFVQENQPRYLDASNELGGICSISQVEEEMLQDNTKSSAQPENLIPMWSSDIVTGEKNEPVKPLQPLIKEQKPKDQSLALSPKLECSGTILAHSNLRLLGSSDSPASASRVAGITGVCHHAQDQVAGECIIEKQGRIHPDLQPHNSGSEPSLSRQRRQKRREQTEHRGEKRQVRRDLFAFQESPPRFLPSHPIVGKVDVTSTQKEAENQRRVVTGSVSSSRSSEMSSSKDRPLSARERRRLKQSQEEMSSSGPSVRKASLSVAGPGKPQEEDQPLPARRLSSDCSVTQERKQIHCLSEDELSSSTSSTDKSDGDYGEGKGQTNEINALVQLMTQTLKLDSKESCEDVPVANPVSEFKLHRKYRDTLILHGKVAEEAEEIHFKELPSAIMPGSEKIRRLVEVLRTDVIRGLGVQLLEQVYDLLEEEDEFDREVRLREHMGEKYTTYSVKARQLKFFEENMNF

CASK (human) = CASK (human) (UniProt O14936); conditions: compound 1.0 µM
CDKL5 (human) = CDKL5 (human) (UniProt O76039)
Sequence of CDKL5 (human) (O76039 whole entry, looked up): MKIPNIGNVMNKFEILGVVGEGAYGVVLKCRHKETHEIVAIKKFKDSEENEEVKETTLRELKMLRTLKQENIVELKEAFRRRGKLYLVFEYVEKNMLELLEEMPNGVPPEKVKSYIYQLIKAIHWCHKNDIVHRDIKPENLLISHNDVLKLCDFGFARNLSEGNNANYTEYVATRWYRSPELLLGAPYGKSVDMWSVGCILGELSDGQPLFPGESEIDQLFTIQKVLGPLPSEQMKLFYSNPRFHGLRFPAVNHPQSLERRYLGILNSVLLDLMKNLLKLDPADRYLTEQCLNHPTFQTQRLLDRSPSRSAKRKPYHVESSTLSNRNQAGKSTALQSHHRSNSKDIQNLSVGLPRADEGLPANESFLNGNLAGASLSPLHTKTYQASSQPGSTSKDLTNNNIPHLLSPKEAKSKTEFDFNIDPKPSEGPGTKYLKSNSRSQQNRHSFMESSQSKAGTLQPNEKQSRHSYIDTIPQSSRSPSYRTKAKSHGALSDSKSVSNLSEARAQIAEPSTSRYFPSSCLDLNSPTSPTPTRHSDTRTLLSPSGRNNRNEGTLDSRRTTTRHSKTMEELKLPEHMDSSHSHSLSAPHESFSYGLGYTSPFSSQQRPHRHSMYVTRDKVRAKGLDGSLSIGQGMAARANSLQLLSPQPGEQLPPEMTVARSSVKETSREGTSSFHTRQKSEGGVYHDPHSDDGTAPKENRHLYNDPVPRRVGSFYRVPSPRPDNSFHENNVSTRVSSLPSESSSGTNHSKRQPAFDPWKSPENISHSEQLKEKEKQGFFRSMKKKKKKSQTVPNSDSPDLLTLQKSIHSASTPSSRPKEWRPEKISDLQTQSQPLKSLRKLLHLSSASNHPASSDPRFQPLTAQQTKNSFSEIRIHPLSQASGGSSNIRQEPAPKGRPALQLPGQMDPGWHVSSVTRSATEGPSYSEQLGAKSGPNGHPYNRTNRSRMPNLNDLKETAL

MAST1 (human) = MAST1 (human) (UniProt Q9Y2H9); conditions: compound 1.0 µM
Sequence of MAST1 (human) (Q9Y2H9 whole entry, looked up): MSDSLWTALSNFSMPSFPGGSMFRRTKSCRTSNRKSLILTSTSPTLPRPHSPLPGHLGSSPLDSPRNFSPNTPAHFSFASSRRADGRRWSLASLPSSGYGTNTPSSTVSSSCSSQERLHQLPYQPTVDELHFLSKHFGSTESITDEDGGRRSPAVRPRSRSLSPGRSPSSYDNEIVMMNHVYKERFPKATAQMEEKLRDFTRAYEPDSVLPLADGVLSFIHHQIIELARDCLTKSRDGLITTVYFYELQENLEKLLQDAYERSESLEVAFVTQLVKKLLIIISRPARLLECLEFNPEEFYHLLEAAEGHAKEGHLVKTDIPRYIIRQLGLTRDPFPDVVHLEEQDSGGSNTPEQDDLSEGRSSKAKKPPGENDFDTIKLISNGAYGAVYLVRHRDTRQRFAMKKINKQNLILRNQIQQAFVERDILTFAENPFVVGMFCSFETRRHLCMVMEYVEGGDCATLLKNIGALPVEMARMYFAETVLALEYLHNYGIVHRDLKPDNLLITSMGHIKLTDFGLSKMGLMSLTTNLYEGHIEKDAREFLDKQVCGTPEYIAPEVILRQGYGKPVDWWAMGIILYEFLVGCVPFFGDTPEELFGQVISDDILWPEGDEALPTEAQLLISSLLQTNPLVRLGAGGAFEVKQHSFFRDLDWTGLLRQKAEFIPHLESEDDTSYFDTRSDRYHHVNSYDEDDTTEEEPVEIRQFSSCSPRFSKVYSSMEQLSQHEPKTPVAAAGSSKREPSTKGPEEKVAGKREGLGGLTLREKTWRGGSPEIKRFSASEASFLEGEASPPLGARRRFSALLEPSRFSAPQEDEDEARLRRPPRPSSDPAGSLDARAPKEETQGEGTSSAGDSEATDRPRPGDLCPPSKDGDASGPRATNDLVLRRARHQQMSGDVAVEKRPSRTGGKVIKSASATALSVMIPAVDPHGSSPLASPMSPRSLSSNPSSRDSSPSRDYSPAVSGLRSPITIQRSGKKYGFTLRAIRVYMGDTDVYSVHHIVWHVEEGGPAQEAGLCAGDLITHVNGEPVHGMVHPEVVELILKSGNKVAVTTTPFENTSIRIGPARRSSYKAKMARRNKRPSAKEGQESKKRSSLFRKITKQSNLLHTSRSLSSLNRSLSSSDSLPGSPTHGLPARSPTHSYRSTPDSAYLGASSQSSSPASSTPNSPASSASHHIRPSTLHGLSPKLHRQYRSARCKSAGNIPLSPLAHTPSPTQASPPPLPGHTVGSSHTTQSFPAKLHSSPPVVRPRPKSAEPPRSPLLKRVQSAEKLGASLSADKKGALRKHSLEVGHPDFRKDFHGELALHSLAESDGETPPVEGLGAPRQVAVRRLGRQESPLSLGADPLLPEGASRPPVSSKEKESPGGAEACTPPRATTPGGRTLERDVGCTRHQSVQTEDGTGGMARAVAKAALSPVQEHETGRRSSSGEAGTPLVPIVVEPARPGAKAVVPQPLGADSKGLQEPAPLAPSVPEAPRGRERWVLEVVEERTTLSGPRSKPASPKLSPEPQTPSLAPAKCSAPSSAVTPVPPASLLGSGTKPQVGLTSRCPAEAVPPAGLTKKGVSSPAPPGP

YES1 (human) = YES1 (human) (UniProt P07947); conditions: compound 1.0 µM
[3] = tested on: RET (human), P07949 [V804M]; conditions: compound 1.0 µM
PDGFRA (human) = PDGFRA (human) (UniProt P16234); conditions: compound 1.0 µM
PRKG2 (human) = PRKG2 (human) (UniProt Q13237); conditions: compound 1.0 µM
[4] = tested on: EGFR (human), P00533 [P753S; 747-752 del]; conditions: compound 1.0 µM
TRPM6 (human) = TRPM6 (human) (UniProt Q9BX84); conditions: compound 1.0 µM
TXK (human) = TXK (human) (UniProt P42681); conditions: compound 1.0 µM
BMPR2 (human) = BMPR2 (human) (UniProt Q13873); conditions: compound 1.0 µM
PI4KB (human) = PI4KB (human) (UniProt Q9UBF8); conditions: compound 1.0 µM
GRK4 (human) = GRK4 (human) (UniProt P32298); conditions: compound 1.0 µM
STK32B (human) = STK32B (human) (UniProt Q9NY57); conditions: compound 1.0 µM
PTK2B (human) = PTK2B (human) (UniProt Q14289); conditions: compound 1.0 µM
INSRR (human) = INSRR (human) (UniProt P14616); conditions: compound 1.0 µM
AKT3 (human) = AKT3 (human) (UniProt Q9Y243); conditions: compound 1.0 µM

Sequence of LATS2 (human) (Q9NRM7 whole entry, looked up): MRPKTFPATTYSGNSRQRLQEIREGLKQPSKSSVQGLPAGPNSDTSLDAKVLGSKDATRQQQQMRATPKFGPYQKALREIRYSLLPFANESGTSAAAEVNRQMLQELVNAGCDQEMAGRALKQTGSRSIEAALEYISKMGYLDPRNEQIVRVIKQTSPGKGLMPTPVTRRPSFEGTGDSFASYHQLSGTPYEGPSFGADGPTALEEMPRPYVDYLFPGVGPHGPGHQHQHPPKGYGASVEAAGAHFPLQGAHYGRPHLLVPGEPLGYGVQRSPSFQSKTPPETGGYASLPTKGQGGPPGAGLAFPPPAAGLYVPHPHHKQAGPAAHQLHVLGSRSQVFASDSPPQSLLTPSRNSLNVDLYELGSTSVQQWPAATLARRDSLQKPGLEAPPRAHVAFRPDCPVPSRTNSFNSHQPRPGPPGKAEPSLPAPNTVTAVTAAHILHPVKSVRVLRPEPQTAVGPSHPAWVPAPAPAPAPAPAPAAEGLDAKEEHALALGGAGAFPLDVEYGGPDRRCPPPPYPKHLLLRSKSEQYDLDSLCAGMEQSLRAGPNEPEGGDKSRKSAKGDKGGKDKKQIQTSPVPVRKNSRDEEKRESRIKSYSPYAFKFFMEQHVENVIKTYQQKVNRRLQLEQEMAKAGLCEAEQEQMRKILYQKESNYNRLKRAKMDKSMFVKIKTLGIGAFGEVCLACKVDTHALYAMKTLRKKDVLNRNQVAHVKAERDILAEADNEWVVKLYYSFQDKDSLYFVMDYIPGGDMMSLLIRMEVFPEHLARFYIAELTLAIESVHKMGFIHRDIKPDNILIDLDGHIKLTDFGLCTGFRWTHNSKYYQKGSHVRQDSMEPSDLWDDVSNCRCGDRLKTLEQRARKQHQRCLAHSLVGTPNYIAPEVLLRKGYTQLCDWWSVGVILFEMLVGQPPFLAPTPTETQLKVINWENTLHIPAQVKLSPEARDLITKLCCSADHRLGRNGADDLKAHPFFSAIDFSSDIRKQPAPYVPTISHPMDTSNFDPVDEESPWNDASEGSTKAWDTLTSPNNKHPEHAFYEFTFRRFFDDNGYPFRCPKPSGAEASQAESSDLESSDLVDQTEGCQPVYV

## CN(C)C/C=C/C(=O)Nc1cccc(C(=O)Nc2ccc(Nc3nccc(-c4cccnc4)n3)cc2)c1
LATS2 (human)
  kinase still bound, per cent of control: 73%
AURKC (human)
  kinase still bound, per cent of control: 33%
TESK1 (human)
  kinase still bound, per cent of control: 88%
ACVR2B (human)
  kinase still bound, per cent of control: 56%
DAPK1 (human)
  kinase still bound, per cent of control: 63%
STK25 (human)
  kinase still bound, per cent of control: 58%
MYLK2 (human)
  kinase still bound, per cent of control: 35%
PRPF4B (human)
  kinase still bound, per cent of control: 93%
CHEK1 (human)
  kinase still bound, per cent of control: 100%
IRAK4 (human)
  kinase still bound, per cent of control: 100%
FER (human)
  kinase still bound, per cent of control: 100%
[1]
  kinase still bound, per cent of control: 100%
STK32A (human)
  kinase still bound, per cent of control: 100%
MAP2K2 (human)
  kinase still bound, per cent of control: 58%
SBK1 (human)
  kinase still bound, per cent of control: 66%
FGFR2 (human)
  kinase still bound, per cent of control: 67%
TGFBR2 (human)
  kinase still bound, per cent of control: 76%
PRKCQ (human)
  kinase still bound, per cent of control: 100%
CDK8 (human)
  kinase still bound, per cent of control: 68%
RPS6KA5 KD1 (human)
  kinase still bound, per cent of control: 100%
MKNK1 (human)
  kinase still bound, per cent of control: 100%
MAPK12 (human)
  kinase still bound, per cent of control: 78%
FLT1 (human)
  kinase still bound, per cent of control: 75%
[2]
  kinase still bound, per cent of control: 29%
RIPK1 (human)
  kinase still bound, per cent of control: 18%
NEK4 (human)
  kinase still bound, per cent of control: 83%
CASK (human)
  kinase still bound, per cent of control: 100%
CDKL5 (human)
  Kd: 34 nM
CDKL5 (human); compound 1.0 µM
  kinase still bound, per cent of control: 1.7%
MAST1 (human)
  kinase still bound, per cent of control: 77%
YES1 (human)
  kinase still bound, per cent of control: 98%
[3]
  kinase still bound, per cent of control: 100%
PDGFRA (human)
  kinase still bound, per cent of control: 67%
PRKG2 (human)
  kinase still bound, per cent of control: 82%
[4]
  kinase still bound, per cent of control: 99%
TRPM6 (human)
  kinase still bound, per cent of control: 100%
TXK (human)
  kinase still bound, per cent of control: 83%
BMPR2 (human)
  kinase still bound, per cent of control: 64%
PI4KB (human)
  kinase still bound, per cent of control: 71%
GRK4 (human)
  kinase still bound, per cent of control: 32%
STK32B (human)
  kinase still bound, per cent of control: 100%
PTK2B (human)
  kinase still bound, per cent of control: 100%
INSRR (human)
  kinase still bound, per cent of control: 100%
AKT3 (human)
  kinase still bound, per cent of control: 100%
